From patent publication US7531576B2, “Biphenyl derivatives” (Pola Chemical Industries, Inc., priority 2000, dated 2009)

Target: ACAT
Assay: Evaluation of ACAT inhibitory activity (rat liver enzyme preparation, [14C]-oleoyl CoA substrate)
Type: biochemical
Settings: ACAT from liver of rats on high-cholesterol feed; 30° C.; pIC50 from concentration-response curve by the nonlinear least square method
Procedure: IR (cm^−1) (KBr): • 1517, 1521, 2962. Test (Evaluation of ACAT Inhibitory Activity) (1) Preparation of the Enzyme (ACAT)
(1-1) Each rat was reared for about 3 weeks on high-cholesterol feed (solid feed prepared by adding 1% of cholesterol, 0.3% of sodium cholate, 0.1% of propylthiouracil and 3% of lard to a conventional feed MF).
(1-2) The liver of the rat reared in (1-1) was collected and shredded. 10 mM HEPES buffer (pH 7.4) which contained 0.25 M of sucrose and 1 mM of EDTA was added in an amount about three times as much as the weight of the liver to suspend the latter. The liver was then homogenized by a glass-Teflon homogenizer.
(1-3) The homogenized liver was centrifuged for 15 minutes under 22000×g, and the supernatant was collected.
(1-4) The supernatant was centrifuged further for 60 minutes under 100000×g. To the precipitates, 10 mM HEPES buffer (pH 7.4) containing 0.25 M of sucrose and 1 mM of EDTA therein was added in about a half of the volume used in (1-2), and the precipitates were suspended again.
(1-5) The suspension was again centrifuged for 60 minutes under 100000×g, and the resulting precipitates were collected. 10 mM HEPES buffer (pH 7.4) containing 0.25 M of sucrose and 2 mM of DTT therein was added to suspend the precipitates. The suspension was stored at −80° C.
(2) Preparation of Reagents
0.75 M Phosphate buffer (pH 7.4), 800 μM BSA and 100 mM DTT were mixed together in amounts of 1.0 mL, 0.5 mL and 0.1 mL, respectively, and ultrapure water (3.4 mL) was added.
A refrigerated sample of the enzyme was diluted with the “reaction buffer” described above to 2.5 mg protein/mL.
10^−3 M Solutions of the compounds to be evaluated were prepared with methanol. 3×10^−4 M Solutions were each prepared by adding 50% methanol (700 μL) to the corresponding 10^−3 M solution (300 μL). 10^−4 M Solutions were each prepared by adding 50% methanol (600 μL) to the corresponding […] solution (300 μL). Up to 10^−7 M solutions (serial 3-fold dilutions), the solutions were prepared by a similar procedure.
(3) Assay Method of ACAT Activity
(3-1) ACAT (20 μL), the reaction buffer (20 μL) and desired one (5 μL) of test samples were placed in a 1.5 mL test tube and incubated at 30° C. for 10 minutes (the resulting solution will hereinafter be called “I”).
(3-2) Reaction substrate [^14C]-oleoyl CoA (5 μL) was added into “I”, and was allowed to react at 30° C. for 4 minutes.
(3-3) Four minutes later, methanol (250 μL) was added to terminate the reaction, and then, a lipid mixture (40 μL), recovery-percentage-correcting [^3H]-cholesteryl oleate (10 μL) and hexane (700 μL) were added into the test tube (this solution will hereinafter be called “II”).
(3-4) “II” was stirred in a mixer, and the hexane layer (500 μL) was collected and transferred into another test tube (this solution will hereinafter be called “III”).
(3-5) “III” was evaporated to dryness, dissolved in chloroform (10 μL), and then spotted on a TLC plate. At that time, cholesteryl oleate was also spotted.
(3-6) After the spots were dried, they were developed with a 85:15:0.5 mixture of hexane, diethyl ether and acetic acid as a developer solvent, and then stained with iodine. A plate section corresponding to the spot of cholesteryl oleate was cut out and placed in a vial. At the same time, the reaction substrate [^14C]-oleoyl CoA (5 μL) and the recovery-percentage-correcting [^3H]-cholesteryl oleate (10 μL) were spotted on the TLC plate, and similarly, plate sections were cut out and placed in vials, respectively.
(3-7) Subsequently, “Aquazole II” (about 10 mL) was added to the vials. After the vials were allowed to stand for a while, they were measured for [^14C] and [^3H] radioactivities.
Using the radioactivities, the % recovery of [^14C]-cholesteryl oleate formed by the enzymatic reaction was calculated from the radioactivity of [^3H], and from the radioactivity of [^14C], the yield of cholesteryl oleate was calculated. […]

PIC50	Structure (SMILES)
6.57	CCCCCN(Cc1ccc(-c2ccccc2NC(=O)C(F)(F)F)cc1)C(=O)Nc1c(F)cc(F)cc1F [Compound of the formula (10), N′-Pentyl-N′-[[2′-[[(trifluoromethyl)carbonyl]-amino]-1,1′-biphenyl-4-yl]methyl]-N-(2,4,6-trifluorophenyl)urea]
5.23	CCCCCN(CC(=O)Nc1c(C)cc(C)cc1C)Cc1ccc(-c2ccccc2-c2nnn[nH]2)cc1 [Compound of the formula (14), N-Pentyl-N-[[2′-(1H-tetrazol-5-yl)-1,1′-biphenyl-4-yl]methyl]-N-[[[(2,4,6-trimethylphenyl)amino]-carbonyl]methyl]amine]
5.18	CCCCCCCN(Cc1ccc(-c2ccccc2-c2nnn[nH]2)cc1)C(=O)NC1CCCCC1 [Compound of the formula (9), N-Cyclohexyl-N′-heptyl-N′-[[2′-(1H-tetrazol-5-yl)-1,1′-biphenyl-4-yl]methyl]urea]
5.39	CCCCCN(CC(=O)Nc1c(C(C)C)cccc1C(C)C)Cc1ccc(-c2ccccc2-c2nnn[nH]2)cc1 [Compound of the formula (13), N-[[[(2,6-Diisopropylphenyl)amino]carbonyl]methyl]-N-pentyl-N-[[2′-(1H-tetrazol-5-yl)-1,1′-biphenyl-4-yl]methyl]amine]
5.71	CCCCCN(Cc1ccc(-c2ccccc2NS(=O)(=O)C(F)(F)F)cc1)C(=O)Nc1c(F)cc(F)cc1F [Compound of the formula (11), N′-Pentyl-N′-[[2′-[[(trifluoromethyl)sulfonyl]-amino]-1,1′-biphenyl-4-yl]methyl]-N-(2,4,6-trifluorophenyl)urea]
6.23	CCCCCCCN(Cc1ccc(-c2ccccc2-c2nnn[nH]2)cc1)C(=O)Nc1c(F)cc(F)cc1F [Compound of the formula (7), N′-Heptyl-N′-[[2′-(1H-tetrazol-5-yl)-1,1′-biphenyl-4-yl]methyl]-N-(2,4,6-trifluorophenyl)urea]
5.21	CCCCCN(CC(=O)Nc1c(F)cc(F)cc1F)Cc1ccc(-c2ccccc2-c2nnn[nH]2)cc1 [Compound of the formula (15), N-Pentyl-N-[[2′-(1H-tetrazol-5-yl)-1,1′-biphenyl-4-yl]methyl]-N-[[[(2,4,6-trifluorophenyl)amino]-carbonyl]methyl]amine]
5.72	CCCCCN(Cc1ccc(-c2ccccc2-c2nnn[nH]2)cc1)C(=O)Nc1c(C(C)C)cccc1C(C)C [Compound of the formula (4), N-(2,6-Diisopropylphenyl)-N′-pentyl-N′-[[2′-(1H-tetrazol-5-yl)-1,1′-biphenyl-4-yl]methyl]urea]
5.52	CCCCCN(Cc1ccc(-c2ccccc2-c2nnn[nH]2)cc1)C(=O)Nc1c(F)cc(F)cc1F [Compound of the formula (6), N′-Pentyl-N′-[[2′-(1H-tetrazol-5-yl)-1,1′-biphenyl-4-yl]methyl]-N-(2,4,6-trifluorophenyl)urea]
5.49	CCCCCCCN(Cc1ccc(-c2ccccc2-c2nnn[nH]2)cc1)C(=O)Nc1ccc(F)cc1F [Compound of the formula (8), N-(2,4-Difluorophenyl)-N′-heptyl-N′-[[2′-(1H-tetrazol-5-yl)-1,1′-biphenyl-4-yl]methyl]urea]
6.40	CCCCCCCN(Cc1ccc(-c2ccccc2S(=O)(=O)NC(=O)Nc2c(C(C)C)cccc2C(C)C)cc1)C(=O)Nc1c(F)cc(F)cc1F [Compound of the formula (12), N′-[[2′-[[[[(2,6-Diisopropylphenyl)amino]-carbonyl]amino]sulfonyl]-1,1′-biphenyl-4-yl]methyl]-N′-heptyl-N-(2,4,6-trifluorophenyl)urea]
5.65	CCCCCN(Cc1ccc(-c2ccccc2-c2nnn[nH]2)cc1)C(=O)Nc1c(C)cc(C)cc1C [Compound of the formula (5), N′-Pentyl-N′-[[2′-(1H-tetrazol-5-yl)-1,1′-biphenyl-4-yl]methyl]-N-(2,4,6-trimethylphenyl)urea]
